From ChEMBL document CHEMBL1201862, “PubChem BioAssay data set” (2004)
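1) Cells in 96-well plates. 2) Compound, 48 h, 5 concentrations. 3) Linear interpolation between surrounding doses. 4) Unreached endpoint = highest concentration. Abbreviation: GI50, concentration required for 50% inhibition of growth.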 Active and inactive are the calls of the source. Rule as the data show it: active = GI50 up to about 1.1 µM and inactive = higher.

Columns and labels:
Test in all cases: growth of human tumour cells (NCI), 48 h
KM12 = tested on: KM12
CAKI-1 = tested on: CAKI-1
RXF 393 = tested on: RXF 393
SF-539 = tested on: SF-539
RPMI-8226 = tested on: RPMI-8226
K562 = tested on: K562
ACHN = tested on: ACHN
SF-268 = tested on: SF-268
OVCAR-4 = tested on: OVCAR-4
SW-620 = tested on: SW-620
U-251 = tested on: U-251
NCI/ADR-RES = tested on: NCI/ADR-RES
NCI-H226 = tested on: NCI-H226
MDA-MB-435 = tested on: MDA-MB-435
HCC 2998 = tested on: HCC 2998
MOLT-4 = tested on: MOLT-4
A498 = tested on: A498
MCF7 = tested on: MCF7
NCI-H23 = tested on: NCI-H23
TK-10 = tested on: TK-10
SK-OV-3 = tested on: SK-OV-3
SN12C = tested on: SN12C
PC-3 = tested on: PC-3
SNB-75 = tested on: SNB-75
DU-145 = tested on: DU-145
IGROV-1 = tested on: IGROV-1
SK-MEL-28 = tested on: SK-MEL-28
HL-60 = tested on: HL-60
Hs-578T = tested on: Hs-578T
OVCAR-5 = tested on: OVCAR-5
SF-295 = tested on: SF-295
A549 = tested on: A549
SR = tested on: SR
LOX IMVI = tested on: LOX IMVI
HCT-15 = tested on: HCT-15
UO-31 = tested on: UO-31
EKVX = tested on: EKVX
UACC-257 = tested on: UACC-257
M14 = tested on: M14
SK-MEL-5 = tested on: SK-MEL-5
COLO 205 = tested on: COLO 205
OVCAR-8 = tested on: OVCAR-8
HT-29 = tested on: HT-29
SNB-19 = tested on: SNB-19
HOP-62 = tested on: HOP-62
T47D = tested on: T47D
MDA-MB-231 = tested on: MDA-MB-231
NCI-H522 = tested on: NCI-H522
CCRF-CEM = tested on: CCRF-CEM
786-0 = tested on: 786-0
HCT-116 = tested on: HCT-116
OVCAR-3 = tested on: OVCAR-3
SK-MEL-2 = tested on: SK-MEL-2
UACC-62 = tested on: UACC-62
HOP-92 = tested on: HOP-92

[N-]=[N+]=NI1OC(C(F)(F)F)(C(F)(F)F)c2ccccc21
GI50 (KM12): 15.6 µM (inactive)
GI50 (CAKI-1): 8.55 µM (inactive)
GI50 (RXF 393): 14 µM (inactive)
GI50 (SF-539): 16.5 µM (inactive)
GI50 (RPMI-8226): 12.1 µM (inactive)
GI50 (K562): 11.5 µM (inactive)
GI50 (ACHN): 13.9 µM (inactive)
GI50 (SF-268): 13.6 µM (inactive)
GI50 (OVCAR-4): 15.1 µM (inactive)
GI50 (SW-620): 19.1 µM (inactive)
GI50 (U-251): 18.1 µM (inactive)
GI50 (NCI/ADR-RES): 18.6 µM (inactive)
GI50 (NCI-H226): 18.4 µM (inactive)
GI50 (MDA-MB-435): 17.5 µM (inactive)
GI50 (HCC 2998): 17.9 µM (inactive)
GI50 (MOLT-4): 14.7 µM (inactive)
GI50 (A498): 17 µM (inactive)
GI50 (MCF7): 12.9 µM (inactive)
GI50 (NCI-H23): 17.8 µM (inactive)
GI50 (TK-10): 16.5 µM (inactive)
GI50 (SK-OV-3): 21.5 µM (inactive)
GI50 (SN12C): 14.6 µM (inactive)
GI50 (PC-3): 15.7 µM (inactive)
GI50 (SNB-75): 13.5 µM (inactive)
GI50 (DU-145): 18 µM (inactive)
GI50 (IGROV-1): 16.3 µM (inactive)
GI50 (SK-MEL-28): 13.9 µM (inactive)
GI50 (HL-60): 15.4 µM (inactive)
GI50 (Hs-578T): 12.6 µM (inactive)
GI50 (OVCAR-5): 15.1 µM (inactive)
GI50 (SF-295): 16 µM (inactive)
GI50 (A549): 14.9 µM (inactive)
GI50 (SR): 15.6 µM (inactive)
GI50 (LOX IMVI): 15.2 µM (inactive)
GI50 (HCT-15): 8.18 µM
GI50 (UO-31): 11 µM (inactive)
GI50 (EKVX): 16.9 µM (inactive)
GI50 (UACC-257): 24.5 µM (inactive)
GI50 (M14): 31.2 µM (inactive)
GI50 (SK-MEL-5): 1.24 µM (inactive)
GI50 (COLO 205): 13.8 µM (inactive)
GI50 (OVCAR-8): 16.3 µM (inactive)
GI50 (HT-29): 17.3 µM (inactive)
GI50 (SNB-19): > 100 µM (inactive)
GI50 (HOP-62): 15.1 µM (inactive)
GI50 (T47D): 12.1 µM (inactive)
GI50 (MDA-MB-231): 15.1 µM (inactive)
GI50 (NCI-H522): 5.83 µM (inactive)
GI50 (CCRF-CEM): 7.85 µM (inactive)
GI50 (786-0): 15.5 µM (inactive)
GI50 (HCT-116): 17.3 µM (inactive)
GI50 (OVCAR-3): 14.7 µM (inactive)
GI50 (SK-MEL-2): 16 µM (inactive)
GI50 (UACC-62): 18 µM (inactive)
GI50 (HOP-92): 13.4 µM (inactive)
